Data taken from paper PMC2742306 (Molecular cell, 2009).
Marks after values point to notes of the source that are not given here. Residues, ends and D or L forms follow the SMILES beside them. No end group written: not given here.

Legend:
wild-type DegS [1] = target: T1, wild-type DegS (Escherichia coli, UniProt P0AEE3); assay: OMP-peptide activation of RseA cleavage by wild-type DegS; type: biochemical, E. coli; conditions: for Hill Constant (peptide activation): 200 μM RseA
K243D mutant of DegS [2] = target: T2, K243D mutant of DegS (Escherichia coli, UniProt P0AEE3, K243D); assay: OMP-peptide activation of RseA cleavage by K243D DegS; type: biochemical, E. coli; conditions: K243D
D320A DegS [3] = target: T3, D320A DegS (Escherichia coli, UniProt P0AEE3, D320A); assay: OMP-peptide activation of RseA cleavage by D320A DegS; type: biochemical, E. coli; conditions: D320A; for Hill Constant (peptide activation): 200 μM RseA
wild-type DegS [4] = target: T1, wild-type DegS; type: biochemical, E. coli; conditions: for L0, equilibrium constant T/R of unliganded enzyme / KTP/KRP / kr, rate constant for cleavage of RseA by substrate-bound R-state subunits: MWC global fit; for L0, equilibrium constant T/R of unliganded enzyme: enzyme parameter, peptide-independent; for KTP/KRP: peptide preference for relaxed state; for kr, rate constant for cleavage of RseA by substrate-bound R-state subunits: same value for all enzymes and peptides
K243D mutant of DegS [5] = target: T2, K243D mutant of DegS; assay: Global fit to MWC allosteric model, K243D DegS; type: biochemical, E. coli; conditions: K243D, MWC global fit
D320A DegS [6] = target: T3, D320A DegS; assay: Global fit to MWC allosteric model, D320A DegS; type: biochemical, E. coli; conditions: D320A, MWC global fit; for KRS, dissociation constant of RseA substrate for R-state subunit / KTS, dissociation constant of RseA substrate for T-state subunit: not peptide, binding; for L0, equilibrium constant T/R of unliganded enzyme: enzyme parameter, peptide-independent; for KTP/KRP: peptide preference for relaxed state; for kr, rate constant for cleavage of RseA by substrate-bound R-state subunits: same value for all enzymes and peptides
wild-type DegS [7] = target: T1, wild-type DegS; type: biochemical, E. coli; conditions: wild-type DegS 0.9 μM trimer; 20 μM rhodamine-FP; saturating peptide
[8] = target: DegS K243D (residues 27–355, N-terminal His6 tag) (E. coli) (UniProt P0AEE3); assay: enzyme kinetics
[9] = target: T4, DegS D320A (residues 27–355, N-terminal His6 tag) (E. coli, UniProt P0AEE3 27-355, D320A); assay: enzyme kinetics
T4 sequence (looked up): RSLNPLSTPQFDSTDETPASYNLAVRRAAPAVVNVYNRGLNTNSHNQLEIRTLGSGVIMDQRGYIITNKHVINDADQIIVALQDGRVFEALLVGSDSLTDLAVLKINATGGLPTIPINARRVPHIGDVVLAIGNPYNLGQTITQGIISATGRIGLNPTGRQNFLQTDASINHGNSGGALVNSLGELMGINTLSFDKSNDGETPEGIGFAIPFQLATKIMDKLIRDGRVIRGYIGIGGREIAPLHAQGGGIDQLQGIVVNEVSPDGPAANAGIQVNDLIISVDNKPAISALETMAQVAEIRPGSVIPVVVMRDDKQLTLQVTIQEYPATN

[10] = target: T5, DegS K243D (residues 27–355, N-terminal His6 tag) (E. coli, UniProt P0AEE3 27-355, K243D); assay: enzyme kinetics
T5 sequence (looked up): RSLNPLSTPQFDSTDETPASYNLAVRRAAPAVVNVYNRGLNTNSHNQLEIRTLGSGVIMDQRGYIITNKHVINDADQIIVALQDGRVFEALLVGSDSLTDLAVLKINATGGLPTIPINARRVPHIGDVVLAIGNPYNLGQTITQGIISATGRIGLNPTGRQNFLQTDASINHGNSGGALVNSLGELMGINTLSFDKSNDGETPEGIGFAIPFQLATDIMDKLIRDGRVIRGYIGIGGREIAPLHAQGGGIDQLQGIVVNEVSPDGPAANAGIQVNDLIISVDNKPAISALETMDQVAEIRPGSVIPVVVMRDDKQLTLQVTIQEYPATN

[11] = saturating peptide, single sub-KM RseA concentration

T1 sequence (P0AEE3 27-355): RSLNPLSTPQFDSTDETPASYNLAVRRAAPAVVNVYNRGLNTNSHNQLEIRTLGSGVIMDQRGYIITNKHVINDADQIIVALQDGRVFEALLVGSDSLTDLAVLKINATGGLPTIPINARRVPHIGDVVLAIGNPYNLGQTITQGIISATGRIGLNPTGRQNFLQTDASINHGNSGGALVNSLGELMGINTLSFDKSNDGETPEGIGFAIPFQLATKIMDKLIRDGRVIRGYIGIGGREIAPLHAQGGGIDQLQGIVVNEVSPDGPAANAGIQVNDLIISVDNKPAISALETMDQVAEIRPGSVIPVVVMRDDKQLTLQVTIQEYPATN

For NC(=O)CC[C@H](NC(=O)[C@@H](N)Cc1ccc(O)cc1)C(=O)N[C@@H](Cc1ccccc1)C(=O)O [YQF] (H-Tyr-Gln-Phe-OH), the “displacement in concentration between YYF and YQF activation curves” value (wild-type DegS [1]; wild-type DegS) was about 10 fold and the “Hill Constant (peptide activation)” value (wild-type DegS [1]; wild-type DegS) was 1.6 ± 0.1.

With DNRDGNVYQF [DNRDGNVYQF] the “Hill Constant (peptide activation)” value (wild-type DegS [1]; wild-type DegS) was 1.6 ± 0.1, the “Hill Constant (peptide activation)” value (K243D mutant of DegS [2]; 200 μM RseA) was 1.3 ± 0.1 and the “RseA cleavage relative to wild-type DegS” value (K243D mutant of DegS [2]; [11]) was “about three-fold faster”. For the same molecule, the “Hill Constant (peptide activation)” value (D320A DegS [3]) was 1.2 ± 0.1, the “RseA cleavage relative to wild-type DegS” value (D320A DegS [3]; [11]) was “about three-fold faster” and the “L0, equilibrium constant T/R of unliganded enzyme” value (shortened to “L0, equilibrium constant T/R”) (wild-type DegS [4]) was 15000. For the same molecule, the KTP/KRP (wild-type DegS [4]) was 6.1, the “kr, rate constant for cleavage of RseA by substrate-bound R-state subunits” value (“kr … by substrate-bound R-state subunits” below) (wild-type DegS [4]) was 3.3 s⁻¹ and the “KRS, dissociation constant of RseA substrate for R-state subunit” value (from here on “KRS, dissociation constant”) (K243D mutant of DegS [5]; RseA, not peptide, binding) was 150 µM. The “KTS, dissociation constant of RseA substrate for T-state subunit” value (shortened to “KTS, dissociation constant”) (K243D mutant of DegS [5]; RseA, not peptide, binding) was 505 µM, the “L0, equilibrium constant T/R” value (K243D mutant of DegS [5]; enzyme parameter, peptide-independent) was 180 and the KTP/KRP (K243D mutant of DegS [5]; peptide preference for relaxed state) was 1.9. For the same molecule, the “kr … by substrate-bound R-state subunits” value (K243D mutant of DegS [5]; same value for all enzymes and peptides) was 3.3 s⁻¹, the “KRS, dissociation constant” value (D320A DegS [6]) was 150 µM and the “KTS, dissociation constant” value (D320A DegS [6]) was 505 µM. For the same molecule, the “L0, equilibrium constant T/R” value (D320A DegS [6]) was 350, the KTP/KRP (D320A DegS [6]) was 2.8 and the “kr … by substrate-bound R-state subunits” value (D320A DegS [6]) was 3.3 s⁻¹.

With EDGEDGDYYF [EDGEDGDYYF] the “Hill Constant (peptide activation)” value (wild-type DegS [1]; wild-type DegS) was 1.3 ± 0.1, the “Hill Constant (peptide activation)” value (D320A DegS [3]) was 1.3 ± 0.1 and the “rate of rhodamine-FP modification in presence of peptide (order)” value (wild-type DegS [7]) was “slower still”. The “KRS, dissociation constant” value (D320A DegS [6]) was 150 µM, the “KTS, dissociation constant” value (D320A DegS [6]) was 505 µM and the “L0, equilibrium constant T/R” value (D320A DegS [6]) was 350. The KTP/KRP (D320A DegS [6]) was 2.1 and the “kr … by substrate-bound R-state subunits” value (D320A DegS [6]) was 3.3 s⁻¹.

In the case of KRRKGKVYYF [KRRKGKVYYF], the EC50 (wild-type DegS [1]) is reported as at most 1000 nM, the “Hill Constant (peptide activation)” value (wild-type DegS [1]; wild-type DegS) is reported as ~1.2 ^a and the “apparent affinity (in words)” value (wild-type DegS [1]; wild-type DegS, among tested peptides) is reported as “highest apparent affinity”. For the same molecule, the “maximal activation (in words)” value (wild-type DegS [1]; wild-type DegS, saturating peptide) was “lowest maximal activation”, the “rate of rhodamine-FP modification in presence of peptide (order)” value (wild-type DegS [7]) was “slowest” and the “L0, equilibrium constant T/R” value (wild-type DegS [4]) was 15000. For the same molecule, the KTP/KRP (wild-type DegS [4]) was 3.3, the “kr … by substrate-bound R-state subunits” value (wild-type DegS [4]) was 3.3 s⁻¹ and the “DegS molecules in active conformation” value (wild-type DegS [4]; saturating peptide and saturating RseA substrate, MWC model) was 9%.

Molecule YYF tripeptide has a KRP (dissociation constant for an R-state subunit) [8] of 1.24 µM and a KTP (dissociation constant for a T-state subunit) [8] of 3.76 µM.

EDGEDGDYYF [OMP peptide EDGEDGDYYF] was tested, and the “KRP (dissociation constant for an R-state subunit)” value [9] was 4.02 µM and the “KTP (dissociation constant for a T-state subunit)” value [9] was 8.5 µM.

DNRDGNVYYF [OMP peptide DNRDGNVYYF] was tested, and the “KRP (dissociation constant for an R-state subunit)” value [10] was 0.07 µM, the “KTP (dissociation constant for a T-state subunit)” value [10] was 0.14 µM and the “KRP (dissociation constant for an R-state subunit)” value [9] was 0.06 µM. For the same molecule, the “KTP (dissociation constant for a T-state subunit)” value [9] was 0.2 µM.

In the case of DNRDGNVYQF [OMP peptide DNRDGNVYQF], the “KRP (dissociation constant for an R-state subunit)” value [10] is reported as 1.64 µM, the “KTP (dissociation constant for a T-state subunit)” value [10] is reported as 3.19 µM and the “KRP (dissociation constant for an R-state subunit)” value [9] is reported as 1.09 µM. For the same molecule, the “KTP (dissociation constant for a T-state subunit)” value [9] was 2.98 µM.
